From patent publication US9522154B2, “Method for scheduling ovulation” (LABORATOIRE HRA-PHARMA, priority 2013, dated 2016)

Experiments:
leading ovarian follicle = test: Clinical trial of a single oral 30 mg dose on the outcome of the leading ovarian follicle before LH surge; type: in vivo, human; conditions: follicle 14-16 mm
Protocol: The results from the clinical trial described in Example 2 were confirmed by a second clinical trial designed to evaluate the effect of a single oral dosage of 30 mg ulipristal acetate on the outcome of the leading ovarian follicle before LH surge, when the follicle was 14-16 mm in diameter. 31 women satisfying all the exclusion/inclusion criteria were enrolled. After the inclusion visit, the women entered the study and underwent ultrasound monitoring starting from Day 5 of their menstrual cycle until the lead follicle reached a diameter of 14-16 mm. At this time, the women received one single dosage of 30 mg ulipristal acetate orally. The women were then monitored daily by ultrasound and hormonal assays until the end of the 21 days treatment period or until ovulation occurred or until the mucus score reached 4 or less at 2 consecutive visits, whichever came first. After which point they were seen twice a week until the end of the study.

women [1] = test: Open-label trial of repeated ulipristal acetate 30 mg oral tablet, once weekly (Q7D) or every 5 days (Q5D) for 8 weeks: ovulation; type: in vivo, human
Protocol: In an open-label designed trial, 12 women received once weekly (Q7D) treatment with ulipristal acetate (30 mg oral tablet) for eight consecutive weeks starting on 7 days ±1 day after the onset of menses in the first cycle; and 11 women received ulipristal acetate 30 mg every 5 days (Q5D) for 8 weeks. […] The first ovulation occurred after a mean of 3.4 and 6.5 doses, and a mean of 17 and 26 days after start of treatment, in the Q7D and Q5D treatment arms, respectively.
Whenulipristal acetate was given during the follicular phase before the onset of the LH surge, ovulation occurred between 6 and 9 days of the last treatment intake in the majority of women.

women [2] = conditions: single dose of 30 mg within 72 hours or 120 hours after the intercourse; cited from earlier work

CC(=O)O[C@]1(C(C)=O)CC[C@H]2[C@@H]3CCC4=CC(=O)CCC4=C3[C@@H](c3ccc(N(C)C)cc3)C[C@@]21C [ulipristal acetate, 17α-acetoxy-11β-[4-N, N-dimethylamino-phenyl)-19-norpregna-4,9-diene-3,20-dione]
mean duration for the ovulation to occur (leading ovarian follicle): 7 days
median duration for the ovulation to occur (leading ovarian follicle): 6 days
Outcome of the leading follicle: Atresia, number of women (leading ovarian follicle; 31 women): 0
Outcome of the leading follicle: LUF, number of women (leading ovarian follicle; 31 women): 2
Outcome of the leading follicle: Luteal phase insufficiency, number of women (leading ovarian follicle; 31 women): 1
Outcome of the leading follicle: Ovulation, number of women (leading ovarian follicle; 31 women): 27
Outcome of the leading follicle: Persistent Follicle, number of women (leading ovarian follicle; 31 women): 1
mean time to first ovulation after start of treatment (women [1]; Q5D arm, 30 mg every 5 days for 8 weeks): 26 days
mean number of doses until first ovulation (women [1]; Q5D arm, 30 mg every 5 days for 8 weeks, 11 women): 6.5 doses
inhibition of ovulation throughout the duration of treatment (women [1]; Q7D and Q5D regimens, majority of subjects): Neither regimen inhibited ovulation throughout the duration of treatment in a majority of subjects
mean time to first ovulation after start of treatment (women [1]; Q7D arm, 30 mg oral tablet once weekly for 8 weeks): 17 days
mean number of doses until first ovulation (women [1]; Q7D arm, 30 mg oral tablet once weekly for 8 weeks, 12 women): 3.4 doses
parameters of the luteal phase (duration, progesterone levels) (women [1]; after exposure to 30 mg): remain within the normal range
fertilizability of the oocyte (women [1]; despite lengthened follicular phase and delay of LH surge, normal pregnancies after 30 mg exposure in emergency contraception trials): the oocyte remains fertilizable
avoidance of unwanted pregnancy (emergency contraception) (women [2]): safe and effective
